The target of the experiment is T1, 5-HT1A serotonin receptor (Rattus norvegicus, UniProt P19327).
T1 construct: from tissue; host or cells: rat brain membranes (inferred from the cited Hall et al. procedure)
T1 sequence (P19327 1-422): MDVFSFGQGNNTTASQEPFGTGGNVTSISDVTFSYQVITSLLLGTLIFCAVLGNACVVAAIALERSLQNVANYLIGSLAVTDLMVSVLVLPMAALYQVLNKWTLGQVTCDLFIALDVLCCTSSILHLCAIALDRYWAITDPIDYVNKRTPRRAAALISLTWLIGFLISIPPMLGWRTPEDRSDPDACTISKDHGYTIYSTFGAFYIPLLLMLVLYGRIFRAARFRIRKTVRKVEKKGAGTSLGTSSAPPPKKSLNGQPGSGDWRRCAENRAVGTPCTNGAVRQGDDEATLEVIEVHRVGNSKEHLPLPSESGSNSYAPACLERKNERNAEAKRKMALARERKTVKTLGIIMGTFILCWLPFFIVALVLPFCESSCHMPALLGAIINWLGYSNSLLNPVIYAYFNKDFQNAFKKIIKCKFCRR
Briefly: displacement of [3H] 8-OHDPAT from the 5-HT1A serotonin receptor (procedure of Hall et al.). In kind it is binding. The source says:
8-OHDPAT (dipropylaminotetralin) from the 5-HT1A serotonin receptor following the procedure of Hall et al., J. Neurochem. 44, 1685 (1985).
Background: Loss of bound radioactivity is the signal in a displacement assay; it reports binding, not function.

The term IC50 denotes the point on the concentration scale where inhibition reaches its midpoint. The compound `C[C@H](CN1CC=C(c2cccc3[nH]ccc23)CC1)N(C(=O)C1CCCCC1)c1ccccn1` [Example 2] yielded a half-maximal inhibitory concentration (IC50) of 1.7 nM.

Consider `C[C@H](CN1CC=C(c2cccc3[nH]ccc23)CC1)Nc1ccccn1` [Example 1, {(R)-2-[4-(1H-Indol-4-yl)-(1,2,3,6-tetrahydro-pyridin-1-yl)]-1-methyl-ethyl}-(pyridin-2-yl)-amine], for which the IC50 worked out at 11.6 nM.

(Values after patent publication EP0785195A1, “Piperidine or tetrahydropyridine derivatives having affinity for the serotonin 5-HTIA receptor” (AMERICAN HOME FOOD PRODUCTS, INC., priority 1996, dated 1997).)
